# Results from patent US20080171750A1, “Modulation Of Neurogenesis With Use of Modafinil” (BrainCells, Inc., priority 2007, published 2008).
# Where two headings read alike, the source gives them in different places.
# How the values were obtained:
# [1] = tested on: Group I or Group III receptors; conditions: at sub-mM concentrations; cited from earlier work
# [2] = molecular target: mGluR3 (Homo sapiens, UniProt Q14832); conditions: read-out: IC50 against mGluR3; cited from earlier work
# [3] = molecular target: mGluR2 (Homo sapiens, UniProt Q14416); conditions: read-out: IC50 against mGluR2; cited from earlier work
# mGluR2, sequence (Q14416 19-872): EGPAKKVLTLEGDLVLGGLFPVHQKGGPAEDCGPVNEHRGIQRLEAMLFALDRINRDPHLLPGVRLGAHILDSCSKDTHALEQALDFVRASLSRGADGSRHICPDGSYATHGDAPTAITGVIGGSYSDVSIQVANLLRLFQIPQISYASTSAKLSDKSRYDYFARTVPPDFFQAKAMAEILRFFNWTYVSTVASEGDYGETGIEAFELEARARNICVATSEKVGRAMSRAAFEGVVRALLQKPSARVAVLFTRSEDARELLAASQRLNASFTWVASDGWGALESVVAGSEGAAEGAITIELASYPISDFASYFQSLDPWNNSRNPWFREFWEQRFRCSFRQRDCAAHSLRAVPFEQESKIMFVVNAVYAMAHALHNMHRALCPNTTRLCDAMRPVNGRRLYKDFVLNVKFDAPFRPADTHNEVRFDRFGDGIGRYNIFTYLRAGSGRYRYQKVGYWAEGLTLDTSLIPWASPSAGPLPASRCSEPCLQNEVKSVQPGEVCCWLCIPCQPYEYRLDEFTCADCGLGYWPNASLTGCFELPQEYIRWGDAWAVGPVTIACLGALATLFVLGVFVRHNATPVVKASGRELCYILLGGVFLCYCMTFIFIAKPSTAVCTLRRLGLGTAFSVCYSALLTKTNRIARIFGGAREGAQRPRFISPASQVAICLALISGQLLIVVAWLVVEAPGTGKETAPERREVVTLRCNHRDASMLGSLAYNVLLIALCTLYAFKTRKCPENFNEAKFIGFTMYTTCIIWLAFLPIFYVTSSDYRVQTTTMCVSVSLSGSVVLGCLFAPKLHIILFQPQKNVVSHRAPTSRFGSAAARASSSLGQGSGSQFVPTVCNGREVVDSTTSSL
# [4] = tested on: KA, AMPA, and NMDA iGlu receptors; conditions: cited from earlier work
# [5] = molecular target: human mGlu2 receptors (Homo sapiens, UniProt Q14416); conditions: low nanomolar range; read-out: EC50 against human mGlu2 receptors in vitro; cited from earlier work
# human mGlu2 receptors, sequence (Q14416 19-872): as above
# [6] = molecular target: human mGlu3 receptors (Homo sapiens, UniProt Q14832); conditions: low nanomolar range; read-out: EC50 against human mGlu3 receptors in vitro; cited from earlier work
# human mGlu3 receptors, sequence (Q14832 23-879): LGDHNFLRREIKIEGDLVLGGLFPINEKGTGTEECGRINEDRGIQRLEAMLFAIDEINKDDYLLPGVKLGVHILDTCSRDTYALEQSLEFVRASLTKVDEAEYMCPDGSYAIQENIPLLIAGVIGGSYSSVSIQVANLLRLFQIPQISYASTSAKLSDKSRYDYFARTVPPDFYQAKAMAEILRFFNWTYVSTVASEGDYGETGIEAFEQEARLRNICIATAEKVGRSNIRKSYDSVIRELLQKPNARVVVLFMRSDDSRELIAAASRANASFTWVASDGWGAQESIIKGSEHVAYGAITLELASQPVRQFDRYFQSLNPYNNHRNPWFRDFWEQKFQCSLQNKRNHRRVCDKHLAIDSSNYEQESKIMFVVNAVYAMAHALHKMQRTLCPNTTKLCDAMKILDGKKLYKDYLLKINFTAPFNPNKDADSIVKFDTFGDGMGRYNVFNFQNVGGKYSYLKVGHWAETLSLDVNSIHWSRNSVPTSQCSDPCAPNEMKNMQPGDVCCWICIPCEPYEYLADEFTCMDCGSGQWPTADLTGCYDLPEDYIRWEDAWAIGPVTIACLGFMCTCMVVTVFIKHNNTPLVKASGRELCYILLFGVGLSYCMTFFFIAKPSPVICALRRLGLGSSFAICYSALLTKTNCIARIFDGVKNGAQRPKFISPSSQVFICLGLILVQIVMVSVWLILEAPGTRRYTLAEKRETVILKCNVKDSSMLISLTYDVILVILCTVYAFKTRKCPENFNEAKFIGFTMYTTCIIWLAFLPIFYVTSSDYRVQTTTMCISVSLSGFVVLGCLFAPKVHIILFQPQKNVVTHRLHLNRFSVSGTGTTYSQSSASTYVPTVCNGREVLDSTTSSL
# [7] = tested on: Human neural stem cells (hNSCs); assay: Neuronal differentiation of human neural stem cells (TUJ-1 staining); assay type: cell-based; conditions: for maximum neuronal differentiation percent of positive control: basal media values subtracted, 0.01 μM to 31.6 μM
# Procedure: Mitogen-free test media with a positive control for neuronal differentiation was used along with basal media without growth factors as a negative control.
# The presence of synergy was determined by use of a combination index (CI). […] The CI is a quantitative measure of the nature of drug interactions, comparing the EC50's of two compounds, when each is assayed alone, to the EC50 of each compound when assayed in combination. The combination index (CI) is equal to the following formula: […]
# where C1 and C2 are the concentrations of a first and a second compound, respectively, resulting in 50% activity in neuronal differentiation when assayed in combination; and IC1 and IC2 are the concentrations of each compound resulting in 50% activity when assayed independently.
# [8] = tested on: Human neural stem cells (hNSCs); assay: Astrocyte differentiation of human neural stem cells (GFAP staining); assay type: cell-based
# [9] = Homo sapiens, Neural stem cell, agent alone, concentration response curve 0.01 μM to 31.6 μM (antalarmin to 3.16 μM), modafinil batch of FIG. 1-3, read-out: EC50, neuronal differentiation, agent used alone
# [10] = Homo sapiens, Neural stem cell, read-out: EC50, neuronal differentiation, agent alone (FIG. 8 experiment)
# mGluR3, sequence (Q14832 23-879): as above
structure (smiles),measurement,setting,value
"NC1(C(=O)O)CCc2cc(P(=O)(O)O)ccc21 (racemic) [APICA, (RS)-1-amino-5-phosphonoindan-1-carboxylic acid]",activity against Group I or Group III receptors,[1],no appreciable activity
same,IC50,[2],~30 µM
same,IC50,[3],~30 µM
"N[C@](CC1c2ccccc2Oc2ccccc21)(C(=O)O)[C@H]1C[C@@H]1C(=O)O [LY341495, (2S)-2-amino-2-(1S,2S-2-carboxycycloprop-1-yl)-3-(xanth-9-yl) propanoic acid]","activity against KA, AMPA, and NMDA iGlu receptors",[4],substantially inactive
"N[C@@]1(C(=O)O)CO[C@H]2[C@H](C(=O)O)[C@H]21 [LY379268, (−)-2-Oxa-4-aminobicyclohexane-4,6-dicarboxylic acid]",EC50,[5],< 0.01 µM
same,EC50,[6],< 0.01 µM
Cc1oc2nc3c(c(NC(=O)CN4CCCC4=O)c2c1C)CCCC3 [MKC-231],EC50,"[7]; agent alone, concentration response curve 0.01 μM to 31.6 μM (antalarmin to 3.16 μM), modafinil batch of FIG. 1-3, read-out: EC50, neuronal differentiation, agent used alone",3.9 µM
same,maximum neuronal differentiation percent of positive control,[7],53%
CC(=O)NCCCS(=O)(=O)O [acamprosate],EC50,[7]; [9],~39.2 µM
CCCCN(CC)c1nc(C)nc2c1c(C)c(C)n2-c1c(C)cc(C)cc1C [antalarmin],EC50,[7]; [9],~34.9 µM
"NC(=O)C[S@@+]([O-])C(c1ccccc1)c1ccccc1 [armodafinil, (−)-2-[(R)-(diphenylmethyl)-sulfinyl]acetamide]",EC50,[7]; [10],~1.24 µM
CN1C(=O)COc2c(C(=O)NC3CN4CCC3CC4)cc(Cl)cc21 (stereo not shown) [azasetron],EC50,[7]; [9],~9.1 µM
O=C1CC2(CCCC2)CC(=O)N1CCCCN1CCN(c2ncccn2)CC1 [buspirone],maximum astrocyte differentiation percent of positive control,"[8]; basal media values subtracted, 0.01 μM to 31.6 μM",59%
same,EC50,[7]; [9],8.4 µM
same,maximum neuronal differentiation percent of positive control,[7],52%
"NC(=O)C[S+]([O-])C(c1ccccc1)c1ccccc1 (stereo not shown) [modafinil, 2-benzhydrylsulfinylethanamide]",astrogenesis produced,[8]; modafinil alone,little or no astrogenesis
same,EC50,[7]; [10],1.93 µM
same,EC50,"[7]; Homo sapiens, Neural stem cell, read-out: EC50, neuronal differentiation, agent used alone",> 31.6 µM
same,EC50,"[7]; Homo sapiens, Neural stem cell, read-out: EC50, neuronal differentiation, modafinil alone (batch 2)",2.9 µM
same,EC50,"[7]; Homo sapiens, Neural stem cell, read-out: EC50 of modafinil alone, estimated based on extrapolation",~83 µM
same,maximum neuronal differentiation percent of positive control,[7],19%
"NCCc1c[nH]c2ccc(O)cc12 [serotonin, 5-hydroxytryptamine]",EC50,[7]; [9],~6.9 µM
